Experimental data published in article PMC2867956, “Interdomain Interactions Control Ca^2+-Dependent Potentiation in the Cation Channel TRPV4” (PLoS ONE, 2010).
“Also recorded” adds a separate entry of the source. Where two headings read alike, the source gives them in different places. No end group written: not given here.

Experiments:
[1] = tested on: wt TRPV4; test: Whole-cell patch clamp, wild type TRPV4; type: cell-based, human
Excerpt: (§1) (See Methods S1 for details).

[2] = tested on: CFP-TRPV4-YFP; conditions: HEK293 cells, Ca^2+-containing buffer; 4α-PMA data not shown; concomitant increase in donor fluorescence
[3] = tested on: TRPV4 mutant WIA; test: Whole-cell patch clamp, TRPV4 mutant WIA; conditions: 4α-PMA 1 µM, nominally Ca^2+-free; -100 and +100 mV, p = 0.014 and 0.023; n = 8
Procedure: (§4) Patch clamp recordings were performed on HEK293 cells in the whole cell configuration. Cells were clamped at a potential of −20 mV, and current-voltage (I–V) relations were obtained from voltage ramps from −100 mV to +100 mV. The standard extracellular solution contained 140 mM NaCl, 5 mM CsCl, 2 mM CaCl2, 1 mM MgCl2, 10 mM glucose, and 10 mM HEPES (pH 7.4 with NaOH). In nominally Ca^2+-free solutions, Ca^2+ was omitted. The standard intracellular solution contained 110 mM cesium methanesulfonate, 25 mM CsCl, 2 mM MgCl2, 0.362 mM CaCl2, 1 mM EGTA, and 30 mM HEPES (pH 7.2 with CsOH) with a calculated [Ca^2+] of 100 nM.
(§5) Patch clamp recordings were performed on HEK293 cells in the whole cell configuration using an EPC10 amplifier and Pulse software (HEKA, Lamprecht, Germany). […] Cells were clamped at a potential of –20 mV, and current-voltage (I-V) relations were obtained from voltage ramps from –100 mV to +100 mV with a duration of 400 ms applied every 4 seconds. Ramp data were acquired with a sampling rate of 20 kHz after filtering at 4 kHz. […] The standard intracellular solution contained 110 mM cesium methanesulfonate, 25 mM CsCl, 2 mM MgCl2, 0.362 mM CaCl2, 1 mM EGTA, and 30 mM HEPES (pH 7.2 with CsOH) with a calculated [Ca^2+] of 100 nM (MaxChelator, Chris Patton, Stanford, USA). […]

[4] = tested on: TRPV4 mutant KRA; test: Whole-cell patch clamp, TRPV4 mutant KRA; conditions: 4α-PMA 1 µM, nominally Ca^2+-free; -100 and +100 mV, p = 0.012 and 0.007; n = 5
Procedure: as §4, §5

[5] = biological target: CaM (UniProt P0DP23); test: Fluorescence polarization, CaM binding to carboxyfluorescein-labeled TRPV4 peptides; conditions: 50 mM Tris pH 7.5, 100 mM KCl, 0.1% BSA, triplicate
Procedure: (§2) Protein interaction experiments were performed in buffers containing 50 mM Tris, pH 7.5, 100 mM KCl, 0.1% BSA and calcium at the indicated concentrations. Calcium concentrations below 50 µM were buffered with HEDTA, EGTA or EDTA at a buffer concentration of 10 mM. CaM concentrations were 10 µM or as indicated; the tracer peptide concentration was 100 nM. Fluorescence anisotropy was measured in a 384-well black multititer plate (Fluotrac 200, Greiner) using a Fusion alpha FP instrument (PerkinElmer) at 1 s reading time per well. Fluorescence polarization (FP) was calculated according to: [drawing 1] with Ipar and Iperp as the fluorescence emission intensities in planes parallel and perpendicular to the excitation plane. FP signals are given as mean±SEM of triplicate measurements in milli-P (mP) units.
(0.11 MB TIF) Click here for additional data file.

[6] = tested on: TRPV4; test: FRET acceptor bleaching, full-length TRPV4 N and C termini in HEK293 cells; type: cell-based, human; conditions: extrapolated donor increase at full acceptor photobleaching; unstimulated HEK293; n = 7 (CFP-TRPV4-YFP), 20 and 13 as printed 'respectively'; p<0.0001 versus control
Excerpt: as §1

[7] = tested on: TRPV4 C2 fragment; test: AlphaScreen interdomain interaction with C2; type: binding, human
Excerpt: First, we did a complementation experiment to test whether a CaM molecule that binds to the C2 fragment of TRPV4 through its C-lobe can form an additional interaction with another CaM binding domain thus forming a ternary complex. […] We used an AlphaScreen-based proximity assay (Fig. 2, Methods S1) in which the acceptor beads were coated with the C-terminal fragment C2-Flag, and the donor beads either with the N-terminal CaM binding peptide P2-biotin, or, as a negative control, with C2-biotin. The interaction between the proteins was measured in the presence of increasing CaM concentrations in 100 µM Ca^2+ or 1 mM EGTA (Fig. 3A).
In an AlphaScreen interaction experiment, donor and acceptor beads were incubated with 10 nM C2-biotin and N2-Flag at concentrations ranging from 30 pM to 1.5 µM, respectively (Fig. 3C).
(§3) Proteins were expressed in E. coli, affinity purified and biotinylated if applicable (for details see Methods S1). For protein interaction measurements, a proximity assay system based on the AlphaScreen technology (PerkinElmer) was used (see Methods S1). Briefly, streptavidin-coated AlphaScreen donor and anti-Flag acceptor beads at a final concentration of 16.7 µg/ml were incubated in a 384-well plate format (OptiPlate-384, PerkinElmer) with C2-GST-biotin or P2-biotin and the respective Flag-tagged interaction protein at concentrations of 10 nM, if not otherwise indicated. Assay buffer conditions were 50 mM Tris, pH 7.4, 100 mM KCl, and 0.1% BSA. After incubation for 90 min at room temperature, the AlphaScreen output signal was recorded in a Fusion alpha FP instrument (PerkinElmer) at 2 s reading time per well. AlphaScreen signals are given as mean±SEM in counts per second (cps) units.
The expression plasmids containing the cDNA for CaM or TRPV4 fragments in the pGEX-2TK vector (Amersham) or a modified derivative that contains an in-frame Flag epitope 5’ to the multiple cloning site were transformed into the BL21(DE3) Escherichia coli host, and protein expression was induced by 200 mg/ml IPTG at an OD600 of 0.6. […] The GST-Flag fusion proteins were eluted with 50 mM Tris, pH 8.5, 100 mM KCl, and 10 mM glutathione. […] The purity of all proteins was confirmed by SDS-polyacrylamide gel electrophoresis and Coomassie staining, and the protein concentration determined by the method according to Bradford using an albumin concentration standard. […]
To establish an improved interaction assay, that allows the quantification of protein interactions on a medium to high throughput scale, a commercially available proximity assay system based on the AlphaScreen (Amplified Luminescent Proximity Homogenous Assay) technology (PerkinElmer) was modified. […]

[8] = tested on: TRPV4 C terminus peptide library; test: Peptide library overlay, TRPV4 C terminus; type: binding, human; conditions: 20-mer peptides on filter, 100 nM biotinylated protein
Excerpt: (0.31 MBTIF) Click here for additional data file.

[9] = biological target: P5 peptide (TRPV4 C-terminal CaM binding site); test: Fluorescence polarization, binding of CaM and isolated CaM lobes to labeled P5; parameters: species or system human; conditions: binding to fluorophore-labeled P5 at 100 µM Ca^2+; tracer 100 nM; pH 7.5
Procedure: We analyzed the properties of the complex between CaM and C-terminal fragments of the human TRPV4 ortholog, and investigated the structural determinants within the CaM molecule that are involved in binding.
as §2, with “Tracer peptides were synthesized and coupled to carboxyfluorescein (Dr. Sven Rothemund, Core unit peptide technologies, IZKF, Leipzig). Protein” for “Protein”

[10] = tested on: TRPV4 C2 fragment; test: AlphaScreen-based CaM interaction assay with C2; type: binding, human
Procedure: as §3
The expression plasmids containing the cDNA for CaM or TRPV4 fragments in the pGEX-2TK vector (Amersham) or a modified derivative that contains an in-frame Flag epitope 5’ to the multiple cloning site were transformed into the BL21(DE3) Escherichia coli host, and protein expression was induced by 200 mg/ml IPTG at an OD600 of 0.6. […] The GST-Flag fusion proteins were eluted with 50 mM Tris, pH 8.5, 100 mM KCl, and 10 mM glutathione. The GST-fusion proteins intended for subsequent biotinylation were subjected to an additional wash step with 50 mM HEPES, pH 7.4, 100 mM KCl and eluted with 50 mM HEPES, pH 8.5, 100 mM KCl, and 10 mM glutathione. The purity of all proteins was confirmed by SDS-polyacrylamide gel electrophoresis and Coomassie staining, and the protein concentration determined by the method according to Bradford using an albumin concentration standard. Biotinylation was performed using a 10-fold molar excess of biotinamidocaproate N-hydroxysuccinimide ester (Sigma). After incubation at 4 °C for 12 h, the reaction was stopped by addition of a 10-fold molar excess of NH4Cl and unbound biotin ester removed by extensive dialysis against 50 mM Tris, pH 7.4, 100 mM KCl.
To establish an improved interaction assay, that allows the quantification of protein interactions on a medium to high throughput scale, a commercially available proximity assay system based on the AlphaScreen (Amplified Luminescent Proximity Homogenous Assay) technology (PerkinElmer) was modified. The assay principle had been originally developed as an enhanced immunoassay and initially termed luminescent oxygen channeling immunoassay (LOCI [1]). […] The resulting emission at a wavelength of 370 nm is further transformed by fluorophores within the bead into a final emission between 520 nm and 620 nm that can be detected by a photomultiplier. […]

[11] = tested on: TRPV4; test: Whole-cell patch clamp, effect of CaM/CaM mutant overexpression on Ca^2+-dependent TRPV4 current increase; type: cell-based, human
Excerpt: This mutant may bind and displace endogenous CaM, but, owing to the N-terminal mutation, cannot fully substitute for the wild type molecule.
as §1

[12] = labeled peptide 100 nM, CaM 10 µM or as indicated, value is Ca^2+ concentration, read-out: Ca^2+ concentration at half-maximal CaM binding (Ca^2+-dependence, EC50)

Compound: CCCCCCCCCCCCCC(=O)O[C@@H]1[C@@H](C)[C@@]2(O)[C@@H](C=C(CO)C[C@@]3(O)C(=O)C(C)=C[C@@H]23)[C@@H]2C(C)(C)[C@]12OC(C)=O [4α-PMA]
- current activated by 4α-PMA ([1]; 4α-PMA 1 µM, nominally Ca^2+-free, wild type, n = 9): slow, small increase in currents
- activation of TRPV4 ([1]; nominally Ca^2+-free solutions, HEK293 cells): weak and slow
- change in FRET fluorescence on stimulation [2]: transient decreases in the FRET
- current activated by 4α-PMA versus wild type [3]: Significantly larger currents; also recorded: significantly larger than the wild type
- current activated by 4α-PMA versus wild type [4]: Significantly larger currents; also recorded: significantly larger than the wild type

Compound: CC(C)C[C@H](NC(=O)[C@H](CCCNC(=N)N)NC(=O)CNC(=O)[C@@H](NC(=O)[C@@H](NC(=O)[C@H](Cc1c[nH]cn1)NC(=O)[C@H](CO)NC(=O)[C@H](Cc1ccccc1)NC(=O)CN)[C@@H](C)O)C(C)C)C(=O)N[C@@H](CCCNC(=N)N)C(=O)N[C@@H](CCCNC(=N)N)C(=O)N[C@@H](CC(=O)O)C(=O)N[C@@H](CCCNC(=N)N)C(=O)N[C@@H](Cc1c[nH]c2ccccc12)C(=O)N[C@@H](CO)C(=O)N[C@@H](CO)C(=O)N[C@H](C(=O)N[C@H](C(=O)N1CCC[C@H]1C(=O)N[C@@H](CCCNC(=N)N)C(=O)N[C@H](C(=O)N[C@H](C(=O)N[C@@H](CCC(=O)O)C(=O)O)C(C)C)C(C)C)C(C)C)C(C)C [P5]
- EC50 [5, 12]: 3.2 µM

Compound: C-V4-Y: TRPV4 with CFP and YFP fused to the N- and C termini
- FRET efficiency [6]: 14.6±1.1

Compound: GRPNLRMKFQGAFRKGVPNP [P1]
- EC50 [5, 12]: 3.6 µM

Compound: N3: N-terminal TRPV4 fragment, residues 114-161, includes P2 (RHHSSDNKRWRKKIIEKQPQSPKAPAPQPPPILKVFNRPILFDIVSRG; UniProt Q9HBA0 114-161, looked up, fragment)
- interaction with C2 ([7]; 10 nM C2-biotin, N2-Flag 30 pM to 1.5 µM, N3 data not shown): interdomain interaction could also be shown
- overlay binding site, C terminus library [8]: strong interaction was found with a region that corresponds to the CaM binding peptide P5

Compound: RSFPVFLRKAFRSGEMVTVGKSSD [P4]
- EC50 [5, 12]: 7.3 µM
- EC50 ([5]; tracer peptide 100 nM, CaM 0.1 nM to 10 µM, read-out: CaM binding EC50): 5 µM

Compound: SSDNKRWRKKIIEKQPQSPK [P2]
- interaction with C2-Flag ([7]; 100 µM Ca^2+ or 1 mM EGTA, absence of CaM (C2: absence or presence of CaM)): strong constitutive interaction
- Ca^2+-dependence of P2/C2 interaction ([7]; no CaM, Ca^2+ 10 nM to 10 mM): already present at 0 Ca^2+ and essentially Ca^2+-insensitive over a wide range of Ca^2+ concentrations

Compound: calmodulin [CaM]
- Kd [9]: 0.4 µM
- EC50 ([10]; AlphaScreen, C2-biotin with CaM-Flag or mutant, 10 nM each, value is Ca^2+ concentration, 50 mM Tris pH 7.4, 100 mM KCl, 0.1% BSA, 90 min room temperature, n = 3 independent experiments in triplicate, read-out: EC50 Ca^2+ concentration for C2 interaction (half maximal binding)): 8.8 ± 1 µM
- AlphaScreen signal of CaM/C2 in EGTA ([10]; CaM-biotin and C2-Flag in 1 mM EGTA): No signal was detected
- Hill coefficient (common) ([10]; Ca^2+-dependence of C2 binding, common fit for CaM, CaM12 and CaM34, n = 3): 2.0
- binding to TRPV4 ([10]; Ca^2+-free buffers for CaM): neither binds to CaM in Ca^2+-free buffers
- current increase upon addition of Ca^2+ on overexpression ([11]; HEK293 cells coexpressing TRPV4, 4α-PMA in Ca^2+-free bath, then 2 mM Ca^2+, +100 and -100 mV, CaM12 p = 0.013 and 0.007 compared to CaM overexpression): slightly increased the TRPV4 response to Ca^2+, but the increase is not statistically significant
- effect on spontaneous or 4α-PMA-activated currents ([11]; nominally Ca^2+-free solution, data not shown): had no effect on spontaneous currents, or currents activated by 4α-PMA
